The results in this text go back to patent US11760744B2, “Fused ring compounds” (Genentech, Inc., priority 2018, dated 2023).

Structures are written as SMILES.

Test [1] concerns the target T1, K-Ras G12C (Homo sapiens, UniProt P01116, G12C). Description: Western blot assay for in cell alkylation of K-Ras G12C (HCC1171 cells). It is filed as cell-based. Set-up: endogenous in cells; host or cells: HCC1171. Particulars: 18 hours at 37° C., 7 point dose response. The protocol:
Western Blot Assay for in Cell Alkylation of K-Ras G12C
HCC1171 cells were maintained in RPMI1640 supplemented with 10% FBS. Cells were plated in a 96-well plate at 20,000 cells/well and the following day compounds were added to the cells. After 18 hours at 37° C., cells were lysed in RIPA buffer (Sigma R0278) with 0.5% SDS and protease/phosphatase inhibitor cocktail. After through mixing to enable complete lysis, the lysates were cleared by centrifugation before 20 μl was transferred from each well and combined with loading buffer and reducing agent. After heating for 10 minutes at 95° C., 15 μl of each sample was loaded onto a 4-20% Tris-Glycine gel and electrophoresed at 110V for 165 minutes in SDS-PAGE running buffer. Gels were transferred to a nitrocellulose membrane, blocked for 1 hour and stained overnight at 4° C. with primary antibody against K-Ras (polyclonal Proteintech 12063-1-AP). The membrane was then washed thoroughly and counterstained with anti-rabbit IRDye 800CW (LI-COR 926-32211) for one hour at room temperature. After final washes, the membrane was imaged on a LI-COR Odyssey CLx at medium resolution. Alkylated K-Ras was visible by an electrophoretic shift from unmodified K-Ras. To quantify this affect, the LICOR software was used to draw a rectangle over alkylated and unalkylated bands for each well and measured the total fluorescent intensity (FI) in each of these bands. The following formula was then used to calculate % alkylation: FI(alkylated)/(FI(alkylated)+FI(unalkylated))*100 for each well.
A 7 point dose response curve was used to determine the IC50 for each compound. Cell alkylation data are presented below in Table 2.
(A western blot detects proteins with antibodies after separation by electrophoresis.)
Target sequence in this assay (P01116 1-188 isoform P01116-2 G12C): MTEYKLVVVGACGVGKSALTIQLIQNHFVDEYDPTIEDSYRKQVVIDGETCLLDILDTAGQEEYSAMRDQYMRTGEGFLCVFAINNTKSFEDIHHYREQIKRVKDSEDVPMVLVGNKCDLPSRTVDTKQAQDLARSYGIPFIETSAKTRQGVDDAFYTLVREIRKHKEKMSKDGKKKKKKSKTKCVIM

In test [2] the target is T1, K-Ras G12C. Description: K-Ras G12C, SOS1, Raf RBD HTRF assay for inhibition of GTP exchange. It is filed as biochemical. Set-up: K-Ras G12C (residues 2-188) and SOS1 (residues 564-1049) had N-terminal 6-His; made in house; host or cells: E. coli. Particulars: 18 hours preincubation with K-Ras G12C at room temperature; SOS1-mediated GTP exchange. The protocol: K-Ras G12C, SOS1, Raf RBD Homogeneous Time Resolved Fluorescence (HTRF) Assay for Inhibition of GTP Exchange
After 18 hours at room temperature, the SOS1 GTP exchange factor (1.67 nM during exchange, 1.25 nM final) was added to initiate nucleotide exchange to GTP (200 μM during exchange, 150 μM final). The level of GTP exchange was assessed by addition of a Ras binding domain derived from C-Raf and the HTRF detection antibodies Tb-anti-FLAG and D2-anti-his (Cis-Bio) at 50 nM, 1 nM and 12.5 nM, respectively. After 2 hours, the ratio of 665 nm to 615 nm emission with 320 nm excitation was measured on an Envision plate reader (Perkin Elmer).
The final reaction volume was 20 μl in a ProxiPlate-384F Plus (Perkin Elmer), in buffer containing 20 mM HEPES, 150 mM NaCl, 1 mM MgCl2, 0.1% BSA, 0.03% Tween-20 and 1 mM DTT. […] HTRF data are presented below in Table 2.
Target sequence in this assay (P01116 2-188 isoform P01116-2 G12C): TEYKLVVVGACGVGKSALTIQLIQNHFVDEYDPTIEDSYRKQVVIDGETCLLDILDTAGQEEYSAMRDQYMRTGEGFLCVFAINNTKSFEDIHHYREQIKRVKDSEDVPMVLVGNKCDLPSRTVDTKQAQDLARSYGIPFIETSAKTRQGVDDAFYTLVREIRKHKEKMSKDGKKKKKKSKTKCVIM
In general terms: Time-resolved FRET reads energy transfer from a long-lived donor to a nearby acceptor.

The term EC50 denotes the concentration needed to bring the measured effect to its halfway point. A low value points to higher potency in that assay. Broadly, the IC50 is the concentration that gives 50% inhibition. A high value points to lower potency. Regarding `C=C(F)C(=O)N1CCN(c2nc(OC[C@@H]3CCCN3C)nc3c2CCC(c2cc(O)cc4ccccc24)C3)CC1CC#N` (mixture of isomers) [Example 61a, 2-(1-(2-fluoroacryloyl)-4-(7-(3-hydroxynaphthalen-1-yl)-2-(((S)-1-methylpyrrolidin-2-yl)methoxy)-5,6,7,8-tetrahydroquinazolin-4-yl)piperazin-2-yl)acetonitrile], at K-Ras G12C [1], the EC50 came to 16 nM. At K-Ras G12C [2], 38 nM corresponded to half-maximal inhibition (IC50).

`CN1CCC[C@H]1COc1nc2c(c(N3CCN(C(=O)/C=C/CF)C(CC#N)C3)n1)CCC(c1cc(O)cc3ccccc13)C2` (mixture of isomers) [Example 62a, 2-(1-((E)-4-fluorobut-2-enoyl)-4-(7-(3-hydroxynaphthalen-1-yl)-2-(((S)-1-methylpyrrolidin-2-yl)methoxy)-5,6,7,8-tetrahydroquinazolin-4-yl)piperazin-2-yl)acetonitrile] registered a 50% effective concentration (EC50) on K-Ras G12C [1] of 14 nM. For the same molecule, inhibition on K-Ras G12C [2] was half-maximal at 18 nM (IC50).

Molecule `C=CC(=O)N1CCN(c2ncnc3c2C[C@@H](C)[C@@H](c2nc(N)cc(C)c2C(F)(F)F)C3)CC1` (single isomer, unassigned) [Example 1a] registered a 50% effective concentration (EC50) on K-Ras G12C [1] of 10000 nM. The molecule further had an IC50 against K-Ras G12C [2] greater than 50000 nM.

Take `C=CC(=O)N1CCN(c2ncnc3c2C[C@H](C)[C@H](c2nc(N)cc(C)c2C(F)(F)F)C3)CC1` (single isomer, unassigned) [Example 1b]: the EC50 on K-Ras G12C [1] came to 10000 nM. Moreover, the IC50 on K-Ras G12C [2] was greater than 50000 nM.

Take `C=CC(=O)N1CCN(c2ncnc3c2CC[C@@H](c2nc(N)cc4ccccc24)C3)CC1` (single isomer, unassigned) [Example 3a]: the response at K-Ras G12C [1] was half-maximal at 30000 nM (EC50). Further, the IC50 on K-Ras G12C [2] was greater than 50000 nM.

Molecule `C=CC(=O)N1CCN(c2ncnc3c2CC[C@H](c2nc(N)cc4ccccc24)C3)CC1` (single isomer, unassigned) [Example 3b] registered an EC50 at K-Ras G12C [1] of 5500 nM. At K-Ras G12C [2], this molecule displayed an IC50 of 710 nM.

Molecule `C=CC(=O)N1CCN(c2ncnc3c2C[C@H](C)[C@@H](c2cc(CO)ccc2C)C3)CC1` (single isomer, unassigned) [Example 4a] returned a 50% inhibitory concentration (IC50) on K-Ras G12C [2] greater than 50000 nM.

On K-Ras G12C [1], `C=CC(=O)N1CCN(c2ncnc3c2C[C@@H](C)[C@H](c2cc(CO)ccc2C)C3)CC1` (single isomer, unassigned) [Example 4b] displayed an EC50 of 1300 nM. This molecule also displayed a concentration for half-maximal inhibition (IC50) against K-Ras G12C [2] of 390 nM.

With `C=CC(=O)N1CCN(c2nc(OC[C@@H]3C[C@@H](F)CN3C)nc3c2C[C@H](C)[C@@H](c2nc(NC)cc(C)c2C(F)(F)F)C3)[C@@H](C)C1` (single isomer, unassigned) [Example 5a], at K-Ras G12C [2], the IC50 is greater than 20000 nM.

For the molecule `C=CC(=O)N1CCN(c2nc(OC[C@@H]3C[C@@H](F)CN3C)nc3c2C[C@@H](C)[C@H](c2nc(NC)cc(C)c2C(F)(F)F)C3)[C@@H](C)C1` (single isomer, unassigned) [Example 5b], the EC50 at K-Ras G12C [1] turned out to be 180 nM. In addition, the IC50 at K-Ras G12C [2] came out at 45 nM.

`C=CC(=O)N1CCN(c2ncnc3c2CC[C@H](c2cccc4c2CCC4)C3)CC1` (single isomer, unassigned) [Example 6a]: the IC50 against K-Ras G12C [2] stood at 2300 nM.

Consider `C=CC(=O)N1CCN(c2ncnc3c2CC[C@@H](c2cccc4c2CCC4)C3)CC1` (single isomer, unassigned) [Example 6b], for which the IC50 against K-Ras G12C [2] was greater than 50000 nM.

In turn, `C=CC(=O)N1CCN(c2ncnc3c2C[C@H](C)[C@@H](c2nc(N)cc(C)c2C(F)(F)F)C3)CC1` (single isomer, unassigned) [Example 8a] gave an IC50 against K-Ras G12C [2] of 3500 nM.

At K-Ras G12C [1], `C=CC(=O)N1CCN(c2ncnc3c2C[C@@H](C)[C@H](c2nc(N)cc(C)c2C(F)(F)F)C3)CC1` (single isomer, unassigned) [Example 8b] had a concentration for a half-maximal effect (EC50) of 89 nM. Also, on K-Ras G12C [2], the IC50 came to 45 nM.

In the case of `C=CC(=O)N1CCN(c2ncnc3c2CC[C@H](c2c(C)ccc4c2COC4)C3)CC1` (single isomer, unassigned) [Example 9a], the 50% inhibitory concentration (IC50) at K-Ras G12C [2] worked out at 4200 nM.

On to `C=CC(=O)N1CCN(c2ncnc3c2CC[C@@H](c2c(C)ccc4c2COC4)C3)CC1` (single isomer, unassigned) [Example 9b], for which, at K-Ras G12C [2], the IC50 is greater than 50000 nM.

In the case of `C=CC(=O)N1CCN(c2ncnc3c2CC[C@@H](c2c(C)c(C)cc4[nH]cnc24)C3)CC1` (single isomer, unassigned) [Example 10a], the IC50 at K-Ras G12C [2] was found to be 19000 nM.

In the case of `C=CC(=O)N1CCN(c2ncnc3c2CC[C@H](c2c(C)c(C)cc4[nH]cnc24)C3)CC1` (single isomer, unassigned) [Example 10b], on K-Ras G12C [1], a half-maximal effect (EC50) was put at 1000 nM. On K-Ras G12C [2], this molecule came in with a 50% inhibitory concentration (IC50) of 270 nM.

With `C=CC(=O)N1CCN(c2nc(OC[C@@H]3CCCN3C)nc3c2C[C@H](C)[C@@H](c2c(C)c(C)cc(N)c2F)C3)[C@@H](C)C1` (single isomer, unassigned) [Example 11a], at K-Ras G12C [2], the IC50 was 1300 nM.

`C=CC(=O)N1CCN(c2nc(OC[C@@H]3CCCN3C)nc3c2C[C@@H](C)[C@H](c2c(C)c(C)cc(N)c2F)C3)[C@@H](C)C1` (single isomer, unassigned) [Example 11b] yielded an EC50 on K-Ras G12C [1] of 47 nM. For the same molecule, the IC50 against K-Ras G12C [2] was less than 10 nM.

On K-Ras G12C [1], `C=CC(=O)N1CCN(c2nc(OC[C@@H]3CCCN3C)nc3c2C[C@H](C)[C@@H](c2c(F)c(N)cc(C)c2C(F)(F)F)C3)[C@@H](C)C1` (single isomer, unassigned) [Example 12a] gave an EC50 of 1100 nM. For the same molecule, at K-Ras G12C [2], the 50% inhibitory concentration (IC50) is 610 nM.

`C=CC(=O)N1CCN(c2ncnc3c2CC[C@@H](c2c(F)c(N)cc(F)c2C(F)(F)F)C3)CC1` (single isomer, unassigned) [Example 13a] yielded an IC50 on K-Ras G12C [2] of 2000 nM.

At K-Ras G12C [2], `CNC/C=C/C(=O)N1CCN(c2ncnc3c2C[C@H](C)[C@@H](c2c(C)ccc4[nH]ncc24)C3)CC1` (single isomer, unassigned) [Example 19b] yielded an IC50 greater than 30000 nM.

The molecule `C=CC(=O)N1CCN(c2nc(OC[C@@H]3C[C@@H](F)CN3C)nc3c2C[C@H](C)[C@@H](c2nc(N)cc(C)c2C2CC2)C3)[C@@H](C)C1` (single isomer, unassigned) [Example 24a] displayed an IC50 against K-Ras G12C [2] greater than 50000 nM.

On to `C=CC(=O)N1CCN(c2ncnc3c2CC[C@@H](c2c(F)c(N)cc(C)c2C(F)(F)F)C3)CC1` (single isomer, unassigned) [Example 27b], for which half-maximal inhibition at K-Ras G12C [2] (IC50) was put at 3000 nM.

In the case of `C=CC(=O)N1CCN(c2nc(OC[C@@H]3C[C@H](F)CN3C)nc3c2CC[C@@H](c2cc(O)cc4ccccc24)C3)[C@@H](C)C1` (single isomer, unassigned) [Example 30b], at K-Ras G12C [2], half-maximal inhibition (IC50) was put at 1200 nM.

`C=CC(=O)N1CCN(c2ncnc3c2C[C@H](C)[C@@H](c2nc(N)ccc2C(F)(F)F)C3)CC1` (single isomer, unassigned) [Example 42a] had an IC50 against K-Ras G12C [2] of 2700 nM.

`C=CC(=O)N1CCN(c2ncnc3c2CC[C@@H](c2nc(N)ccc2C(F)(F)F)C3)CC1` (single isomer, unassigned) [Example 46a] showed an IC50 against K-Ras G12C [2] of 2000 nM. This IC50 and that of the molecule before are within 1.5-fold of each other.

Turning to `C=C(F)C(=O)N1CCN(c2nc(OC[C@@H]3CCCN3C)nc3c2CCC(c2cccc4ccccc24)C3)CC1CC#N` (single isomer, unassigned) [Example 47b], at K-Ras G12C [2], the IC50 worked out at 1500 nM. This IC50 and that of the molecule before are within 1.5-fold of each other.

`C=CC(=O)N1CCN(c2nc(OC[C@@H]3COC(=O)N3C)nc3c2CC[C@@H](c2cc(O)cc4ccccc24)C3)[C@@H](C)C1` (single isomer, unassigned) [Example 57b] displayed an IC50 on K-Ras G12C [2] of 14000 nM.

At K-Ras G12C [2], `C=CC(=O)N1CCN(c2nc(OC[C@@H]3CCCN3C)nc3c2CCCC3)CC1` [Example 45a, 1-[4-[2-[[(2S)-1-methylpyrrolidin-2-yl]methoxy]-5,6,7,8-tetrahydroquinazolin-4-yl]piperazin-1-yl]prop-2-en-1-one] gave an IC50 greater than 50000 nM.

As to `C=CC(=O)N1CCN(c2nc(OCc3cn(C)cn3)nc3c2CCC(c2cc(O)cc4ccccc24)C3)[C@@H](C)C1` (stereo partly drawn) [Example 54a, 1-((3S)-4-(7-(3-hydroxynaphthalen-1-yl)-2-((1-methyl-1H-imidazol-4-yl)methoxy)-5,6,7,8-tetrahydroquinazolin-4-yl)-3-methylpiperazin-1-yl)prop-2-en-1-one], half-maximal inhibition against K-Ras G12C [2] (IC50) was put at 470 nM.
